In patent US20060063784A1, “Method of using substituted pyrazolo [1,5-a] pyrimidines” (priority 2004, published 2006):
pIC50: −log10 of the molar value. Like-named read-outs stand apart in the source and are kept apart here.

Test system: 80S14 (p21-deficient) cells
Assay: Cytotoxicity assay using isogenic cell lines: IC50 in 80S14 (p21-deficient) cells, SRB
Assay type: cell-based, human
Settings: for pIC50: 80S14 (p21-deficient) cells, 5 days, SRB, read-out: IC50 for 80S14; for IC50: 80S14, 120 h, read-out: IC50 for 80S14 (uM)
How it was run: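 IC50 is the concentration halving proliferation relative to untreated controls, read from SRB absorbance (560 nm) after TCA fixation. Test agent dilutions (5 pM–50 μM or 170 pg/ml–10 μg/ml) were left on p21-deficient 80S14 cells (12,000/well, pre-incubated overnight) for 5 days at 37 °C.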

[1] = Homo sapiens, 120 h, class symbols

SMILES	pIC50 [1]	also measured
Cc1ccc(C(=O)c2cnn3c(-c4cccc(N(C)C(=O)C5CC5)c4)ccnc23)cc1 [Example 268, N-Methyl-N-[3-[3-(4-methylbenzoyl)pyrazolo[1,5-a]pyrimidin-7-yl]phenyl}-cyclopropanecarboxamide]	4.30 to 5.00	–
O=C(c1cccs1)c1cnn2c(-c3cccc(-n4cccc4)c3)ccnc12 [Example 270, [7-[3-(1H-Pyrrol-1-yl)phenyl]pyrazolo[1,5-a]pyrimidin-3-yl]-2-thienyl-methanone]	5.00 to 6.00	–
CCNc1ccc(-c2ccnc3c(C(=O)c4cccs4)cnn23)cc1 [Example 271, [7-[4-(Ethylamino)phenyl]pyrazolo[1,5-a]pyrimidin-3-yl]-2-thienyl-methanone]	4.30 to 5.00	–
C=CC(=O)Nc1cccc(-c2ccnc3c(C(=O)c4cccs4)cnn23)c1 [Example 272, N-{3-[3-(2-Thienylcarbonyl)pyrazolo[1,5-a]pyrimidin-7-yl]phenyl}acrylamide]	> 6.00	–
O=C(c1cccs1)c1cnn2c(-c3cccc(NC(=O)C4CO4)c3)ccnc12 (stereo not shown) [Example 277, N-{3-[3-(2-Thienylcarbonyl)pyrazolo[1,5-a]pyrimidin-7-yl]phenyl}-2-oxiranecarboxamide]	> 6.00	–
Cc1cc(-c2cccc(NC(=O)C3CO3)c2)n2ncc(C(=O)c3cccs3)c2n1 (stereo not shown) [Example 278, {3-[5-Methyl-3-(2-thienylcarbonyl)pyrazolo[1,5-a]pyrimidin-7-yl]phenyl}-2-oxiranecarboxamide]	–	pIC50 (class symbols): > 6.00
Cc1cc(-c2cccc(NC(=O)C3CCC3)c2)n2ncc(C(=O)c3cccs3)c2n1 [Example 279, N-{3-[5-Methyl-3-(2-thienylcarbonyl)pyrazolo[1,5-a]pyrimidin-7-yl]phenyl}cyclobutanecarboxamide]	> 6.00	–
O=C(Nc1cccc(-c2ccnc3c(C(=O)c4cccs4)cnn23)c1)c1cc(C(F)(F)F)ccc1C(F)(F)F [Example 280, N-{3-[3-(2-Thienylcarbonyl)pyrazolo[1,5-a]pyrimidin-7-yl]phenyl}-2,5-bis(trifluoromethyl)benzamide]	4.30 to 5.00	–
O=C(Nc1cccc(-c2ccnc3c(C(=O)c4cccs4)cnn23)c1)c1cccc(Br)c1 [Example 286, 3-Bromo-N-{3-[3-(2-thienylcarbonyl)pyrazolo[1,5-a]pyrimidin-7-yl]phenyl}benzamide]	> 6.00	–
CC(C)(C)c1ccc(C(=O)Nc2cccc(-c3ccnc4c(C(=O)c5cccs5)cnn34)c2)cc1 [Example 287, 4-(tert-butyl)-N-{3-[3-(2-thienylcarbonyl)pyrazolo[1,5-a]pyrimidin-7-yl]phenyl}benzamide]	4.30 to 5.00	–
O=C(Nc1cccc(-c2ccnc3c(C(=O)c4cccs4)cnn23)c1)c1ccc(Cl)cc1Cl [Example 289, 2,4-Dichloro-N-{3-[3-(2-thienylcarbonyl)pyrazolo[1,5-a]pyrimidin-7-yl]phenyl}benzamide]	5.00 to 6.00	–
CCCCNC(=N)OC(=N)N(CCCC)c1cccc(-c2ccnc3c(C(=O)c4cccs4)cnn23)c1 [Example 292, N,N′-Dibutyl-N-{3-[3-(2-thienylcarbonyl)pyrazolo[1,5-a]pyrimidin-7-yl]phenyl}dicarbonimidic diamide]	–	pIC50 (Homo sapiens, 120 h, numeric value): 5.35
CC(C)OC(=O)Nc1cccc(-c2ccnc3c(C(=O)c4ccccc4)cnn23)c1 [Example 294, Isopropyl 3-(3-benzoylpyrazolo[1,5-a]pyrimidin-7-yl)phenylcarbamate]	–	IC50 (Homo sapiens): < 1 µM
CC(C)OC(=O)Nc1cccc(-c2ccnc3c(C(=O)C4CCCC4)cnn23)c1 [Example 295, Isopropyl 3-[3-(cyclopentylcarbonyl)pyrazolo[1,5-a]pyrimidin-7-yl]phenylcarbamate]	–	IC50 (Homo sapiens): 1 to 10 µM
CC(C)CC(=O)Nc1cccc(-c2ccnc3c(C(=O)C4CCCC4)cnn23)c1 [Example 296, N-{3-[3-(Cyclopentylcarbonyl)pyrazolo[1,5-a]pyrimidin-7-yl]phenyl}-3-methylbutanamide]	–	IC50 (Homo sapiens): 1 to 10 µM
CC(C)NC(=O)Nc1cccc(-c2ccnc3c(C(=O)c4ccco4)cnn23)c1 [Example 298, N-{3-[3-(2-Furoyl)pyrazolo[1,5-a]pyrimidin-7-yl]phenyl}-N′-isopropylurea]	> 6.00	–
